Drawing on patent US20250026745A1 (Bluejay Therapeutics, Inc., priority 2023, published 2025), this text covers IC50 and EC50 for 19 compounds.

In test [1] the target is recombinant 17β-HSD13 protein (Homo sapiens (Human), UniProt Q7Z5P4). The test can be described thus: 17β-HSD13 biochemical assay (NAD+/NADH Glo chemiluminescence). Particulars: 17β-HSD13 50 nM, NAD+ 10 mM, β-estradiol 20 μM, 2 hours room temperature. Summed up:
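Compounds preincubated 1 h at room temperature with 50 nM enzyme and 10 mM NAD+ (final) in 200 mM Tris pH 7.5, 0.01% Triton X-100, 0.02% BSA. Reaction started with 20 μM β-estradiol and run 2 hours at room temperature; NADH formation detected by NAD+/NADH-Glo chemiluminescence. IC50 from four-parameter logistic fit.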

The target of test [2] is HEK293 cells expressing 17β-HSD13 (Homo sapiens (Human), UniProt Q7Z5P4). Nature of the test: 17β-HSD13 cell-based assay (β-estradiol conversion, LC-MS/MS). How it is done:
HEK293 cells expressing 17β-HSD13 either stably or transiently were incubated with compounds for 60 min at 37° C. in a humidified incubator. After this first incubation step, β-estradiol was added to each well of the microtiter plate and incubated for 3 h at 37° C. in the humidified incubator. After treatment with β-Estradiol, 50 μL of supernatant was transferred to a 96-V plate containing 100 μL acetonitrile and centrifuged at 3900 rpm for 45 min. Finally, 50 μL of supernatant were taken for LC-MS/MS analysis. The chromatography part was run on a Xbridge 30 mm×2.1 mm column (Waters), at 40 degrees Celsius and a flow rate of 0.8 mL/min for 5 min, while the MS was done on a Q Exactive Orbitrap (Fisher Scientific) in Target SIM mode and negative polarity with a spray voltage of 3.5 kV. EC50 values were determined with GraphPad Prism®, where log-transformed concentration values and the inhibition data were fitted to a four-parameter logistic equation. Y=Bottom+(Top−Bottom)/(1+10^((Log EC50−X)*Hill Slope)). The original, % control, or % inhibition data are represented by Y along with their minimal (Bottom) and maximal (Top) values. The inhibitor concentration is represented by X, EC50 is the concentration at 50% maximal value, and Hill Slope is the slope factor.

The mark [3] stands for this setting: HEK293 cells stably expressing 17β-HSD13 (footnote b), read-out: EC50, nM Stable.
[4] abbreviates: HEK293 cells transiently expressing 17β-HSD13 (footnote a), read-out: EC50, nM Transient.

Read-outs that look alike come from different tables or passages of the source.

Sequence of recombinant 17β-HSD13 protein (Q7Z5P4 20-300): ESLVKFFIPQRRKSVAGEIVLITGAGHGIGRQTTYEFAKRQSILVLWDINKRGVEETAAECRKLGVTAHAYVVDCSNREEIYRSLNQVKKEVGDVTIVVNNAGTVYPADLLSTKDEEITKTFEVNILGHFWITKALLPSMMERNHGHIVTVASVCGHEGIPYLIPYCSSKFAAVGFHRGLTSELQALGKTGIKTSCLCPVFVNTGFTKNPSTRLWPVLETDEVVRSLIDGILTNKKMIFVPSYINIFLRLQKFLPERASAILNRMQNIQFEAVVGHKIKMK
Sequence of HEK293 cells expressing 17β-HSD13 (Q7Z5P4 20-300): as above

Consider `O=C1N(CC(F)(F)F)C(=O)C2(CC2)N1Cc1nnc(-c2cc(C(F)(F)F)cc(O)c2Cl)s1` [Compound I-40, 4-((5-(2-chloro-3-hydroxy-5-(trifluoromethyl)phenyl)-1,3,4-thiadiazol-2-yl)methyl)-6-(2,2,2-trifluoroethyl)-4,6-diazaspiro[2.4]heptane-5,7-dione], for which the 50% inhibitory concentration (IC50) (as a rule, the concentration that inhibits the measured activity by half) in test [1] was 9.8 nM. Moreover, the EC50 (as a rule, the concentration giving half of the maximal effect) in test [2] (setting [3]) is 66.4 nM.
With `CCN1C(=O)N(Cc2nnc(-c3cc(C(F)(F)F)cc(O)c3F)s2)C2(CC2)C1=O` [Compound I-14, 6-ethyl-4-[[5-[2-fluoro-3-hydroxy-5-(trifluoromethyl)phenyl]-1,3,4-thiadiazol-2-yl]methyl]-4,6-diazaspiro[2.4]heptane-5,7-dione], the half-maximal inhibitory concentration (IC50) in test [1] came out at 9.6 nM. The concentration for a half-maximal effect (EC50) in test [2] (setting [3]) is 125 nM.
For `C[C@H](c1ccccc1)N1C(=O)N(Cc2nnc(-c3ccc(F)c(O)c3F)s2)C2(CC2)C1=O` [Compound I-82, (R)-4-((5-(2,4-difluoro-3-hydroxyphenyl)-1,3,4-thiadiazol-2-yl)methyl)-6-(1-phenylethyl)-4,6-diazaspiro[2.4]heptane-5,7-dione] the same measures were 1.76 ± 0.26 nM and 8.42 nM.
As to `CCN1C(=O)N(Cc2nnc(-c3cc(O)cc(C(F)(F)F)c3)s2)C2(CC2)C1=O` [Compound I-22, 6-ethyl-4-((5-(3-hydroxy-5-(trifluoromethyl)phenyl)-1,3,4-thiadiazol-2-yl)methyl)-4,6-diazaspiro[2.4]heptane-5,7-dione], the IC50 in test [1] is 41 ± 3.9 nM. Also, the half-maximal effective concentration (EC50) in test [2] (setting [3]) was 144 nM.
For `O=C1N(C2CCC2)C(=O)C2(CC2)N1Cc1nnc(-c2ccc(F)c(O)c2F)s1` [Compound I-30, 6-cyclobutyl-4-((5-(2,4-difluoro-3-hydroxyphenyl)-1,3,4-thiadiazol-2-yl)methyl)-4,6-diazaspiro[2.4]heptane-5,7-dione] the same measures were 7.08 nM and 35.9 nM.
The matching figures for `O=C1N(Cc2ccccc2)C(=O)C2(CC2)N1Cc1nnc(-c2ccc(F)c(O)c2F)s1` [Compound I-20, 6-benzyl-4-((5-(2,4-difluoro-3-hydroxyphenyl)-1,3,4-thiadiazol-2-yl)methyl)-4,6-diazaspiro[2.4]heptane-5,7-dione]: 2.28 ± 0.933 nM and 11.6 nM.
The matching figures for `O=C1N([C@H](c2ccc(F)cc2F)C(F)(F)F)C(=O)C2(CC2)N1Cc1nnc(-c2ccc(F)c(O)c2F)s1` [Compound I-90A, (R)-4-((5-(2,4-difluoro-3-hydroxyphenyl)-1,3,4-thiadiazol-2-yl)methyl)-6-(1-(2,4-difluorophenyl)-2,2,2-trifluoroethyl)-4,6-diazaspiro[2.4]heptane-5,7-dione]: 1.01 ± 0.125 nM and 8.38 nM.
In the case of `O=C1N(C(c2ccccc2)C(F)(F)F)C(=O)C2(CC2)N1Cc1nnc(-c2ccc(F)c(O)c2Cl)s1` (stereo in doubt) [Compound I-53, 4-[[5-(2-chloro-4-fluoro-3-hydroxy-phenyl)-1,3,4-thiadiazol-2-yl]methyl]-6-[(S)-(difluoromethyl-fluoranyl)-phenyl-methyl]-4,6-diazaspiro[2.4]heptane-5,7-dione], in test [1], the half-maximal inhibitory concentration (IC50) stood at 5.6 nM. In addition, the EC50 in test [2] (setting [3]) worked out at 26.3 nM.
For `O=C1N(C(c2ccc(F)cc2F)C(F)(F)F)C(=O)C2(CC2)N1Cc1nnc(-c2ccc(F)c(O)c2Cl)s1` (centres unmarked) [Compound I-54, 4-[[5-(2-chloro-4-fluoro-3-hydroxy-phenyl)-1,3,4-thiadiazol-2-yl]methyl]-6-[1-(2,4-difluorophenyl)-2,2,2-trifluoro-ethyl]-4,6-diazaspiro[2.4]heptane-5,7-dione] the same measures were 1.53 nM and 10.7 nM.
The matching figures for “6-cyclopropyl-4-[[5-(2,4-difluoro-3-hydroxy-phenyl)-1,3,4-thiadiazol-2-yl]methyl]-4,6-diazaspiro[2.4]heptane-5,7-dione [Compound I-41]”: 4.15 nM and 18.9 nM.
Consider `CC(C)N1C(=O)N(Cc2nnc(-c3ccc(F)c(O)c3F)s2)C2(CC2)C1=O` [Compound I-5, 4-((5-(2,4-difluoro-3-hydroxyphenyl)-1,3,4-thiadiazol-2-yl)methyl)-6-isopropyl-4,6-diazaspiro[2.4]heptane-5,7-dione], for which, in test [1], the 50% inhibitory concentration (IC50) was found to be 8.99 ± 0.322 nM. The EC50 in test [2] (setting [4]) was determined as 42.2 nM.
On to `CCCN1C(=O)N(Cc2nnc(-c3ccc(F)c(O)c3F)s2)C2(CC2)C1=O` [Compound I-4, 4-((5-(2,4-difluoro-3-hydroxyphenyl)-1,3,4-thiadiazol-2-yl)methyl)-6-propyl-4,6-diazaspiro[2.4]heptane-5,7-dione], for which the IC50 in test [1] came out at 10.6 ± 0.919 nM. Further, in test [2] (setting [4]), the 50% effective concentration (EC50) came to 20.6 nM.
Take `CCN1C(=O)C(C)N(Cc2nnc(-c3ccc(F)c(O)c3F)s2)C1=O` (centres unmarked) [Compound I-3, 1-((5-(2,4-difluoro-3-hydroxyphenyl)-1,3,4-thiadiazol-2-yl)methyl)-3-ethyl-5-methylimidazolidine-2,4-dione]: the 50% inhibitory concentration (IC50) in test [1] amounted to 86.1 nM. In test [2] (setting [4]), the EC50 turned out to be 175 nM.
With `O=C1N([C@@H](c2ccc(-c3ccc(F)cc3)cc2F)C(F)(F)F)C(=O)C2(CC2)N1Cc1nnc(-c2ccc(F)c(O)n2)s1` [Compound I-96, (S)-6-(1-(3,4′-difluoro-[1,1′-biphenyl]-4-yl)-2,2,2-trifluoroethyl)-4-((5-(5-fluoro-6-hydroxypyridin-2-yl)-1,3,4-thiadiazol-2-yl)methyl)-4,6-diazaspiro[2.4]heptane-5,7-dione], the IC50 in test [1] worked out at 3.11 nM. In addition, in test [2] (setting [3]), the concentration giving a half-maximal response (EC50) was 121 nM.
For `O=C1N(Cc2ccccc2)C(=O)C2(CC2)N1Cc1nnc(-c2ccc(F)c(O)c2Cl)s1` [Compound I-35, 6-benzyl-4-((5-(2-chloro-4-fluoro-3-hydroxyphenyl)-1,3,4-thiadiazol-2-yl)methyl)-4,6-diazaspiro[2.4]heptane-5,7-dione] the same measures were 5.33 nM and 40.9 nM.
For `O=C1N(Cc2ccc(Cl)cc2Cl)C(=O)C2(CC2)N1Cc1nnc(-c2ccc(F)c(O)c2Cl)s1` [Compound I-34, 4-((5-(2-chloro-4-fluoro-3-hydroxyphenyl)-1,3,4-thiadiazol-2-yl)methyl)-6-(2,4-dichlorobenzyl)-4,6-diazaspiro[2.4]heptane-5,7-dione] the same measures were 4.6 nM and 119 nM.
In the case of `O=C1N(CC23CC(C2)C3)C(=O)C2(CC2)N1Cc1nnc(-c2ccc(F)c(O)c2F)s1` [Compound I-6, 6-(bicyclo[1.1.1]pentan-1-ylmethyl)-4-((5-(2,4-difluoro-3-hydroxyphenyl)-1,3,4-thiadiazol-2-yl)methyl)-4,6-diazaspiro[2.4]heptane-5,7-dione], the IC50 in test [1] came to 22.1 ± 2.18 nM. Moreover, the concentration giving a half-maximal response (EC50) in test [2] (setting [4]) turned out to be 165 nM.
On to `C[C@H](c1ccccc1)N1C(=O)N(Cc2nnc(-c3ccc(F)c(O)c3Cl)s2)C2(CC2)C1=O` [Compound I-31, 4-[[5-(2-chloro-4-fluoro-3-hydroxy-phenyl)-1,3,4-thiadiazol-2-yl]methyl]-6-[(1R)-1-phenylethyl]-4,6-diazaspiro[2.4]heptane-5,7-dione], for which, in test [1], the half-maximal inhibitory concentration (IC50) amounted to 2.68 nM. The 50% effective concentration (EC50) in test [2] (setting [3]) was found to be 10.8 nM.
The matching figures for `O=C1N(CC2(C(F)(F)F)CC2)C(=O)C2(CC2)N1Cc1nnc(-c2ccc(F)c(O)c2F)s1` [Compound I-19, 4-((5-(2,4-difluoro-3-hydroxyphenyl)-1,3,4-thiadiazol-2-yl)methyl)-6-((1-(trifluoromethyl)cyclopropyl)methyl)-4,6-diazaspiro[2.4]heptane-5,7-dione]: 14.8 ± 2.51 nM and 78.8 nM.
